Source: ChEMBL document CHEMBL1909046, “DrugMatrix in vitro pharmacology data”

Experiments:
[1] = DRUGMATRIX: Calcium Channel Type L, Phenylalkylamine radioligand binding (ligand: [3H] (-)-Desmethoxyverapamil (D-888)); format: cell membranes, Rattus norvegicus, Wistar, Brain, Membrane; conditions: Not Active = under 50% inhibition at 10 µM
D(3) dopamine receptor = D(3) dopamine receptor (Homo sapiens, UniProt P35462); assay: DRUGMATRIX: Dopamine D3 radioligand binding (ligand: [3H] Spiperone); format: cell membranes, CHO, Membrane; conditions: cho
[2] = target: T1, Muscarinic acetylcholine receptor M2 (Homo sapiens, UniProt P08172); format: cell membranes, CHO-K1, Membrane; conditions: cho-k1; note: in other assays of this panel Not Active means under 50% inhibition at 10 µM
T1 sequence (P08172 whole entry): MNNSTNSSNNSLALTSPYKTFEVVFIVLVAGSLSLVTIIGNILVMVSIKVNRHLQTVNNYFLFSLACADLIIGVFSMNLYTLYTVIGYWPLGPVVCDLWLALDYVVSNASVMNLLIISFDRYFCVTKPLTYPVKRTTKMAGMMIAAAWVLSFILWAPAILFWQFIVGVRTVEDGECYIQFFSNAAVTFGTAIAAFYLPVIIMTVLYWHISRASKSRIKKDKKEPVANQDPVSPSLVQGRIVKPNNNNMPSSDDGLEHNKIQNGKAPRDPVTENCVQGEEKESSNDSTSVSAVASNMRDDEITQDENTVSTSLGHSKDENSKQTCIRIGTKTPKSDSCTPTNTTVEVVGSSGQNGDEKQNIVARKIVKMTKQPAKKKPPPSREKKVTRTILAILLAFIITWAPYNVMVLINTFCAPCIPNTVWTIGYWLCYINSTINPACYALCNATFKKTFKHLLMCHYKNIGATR

Caspase-1 = target: T2, Caspase-1 (Homo sapiens, UniProt P29466); set-up: species or system Escherichia coli;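 note: Caspase-1 enzyme inhibition assay with a peptide substrate; in other assays of this panel Not Active means under 50% inhibition at 10 µM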
T2 sequence (P29466 whole entry): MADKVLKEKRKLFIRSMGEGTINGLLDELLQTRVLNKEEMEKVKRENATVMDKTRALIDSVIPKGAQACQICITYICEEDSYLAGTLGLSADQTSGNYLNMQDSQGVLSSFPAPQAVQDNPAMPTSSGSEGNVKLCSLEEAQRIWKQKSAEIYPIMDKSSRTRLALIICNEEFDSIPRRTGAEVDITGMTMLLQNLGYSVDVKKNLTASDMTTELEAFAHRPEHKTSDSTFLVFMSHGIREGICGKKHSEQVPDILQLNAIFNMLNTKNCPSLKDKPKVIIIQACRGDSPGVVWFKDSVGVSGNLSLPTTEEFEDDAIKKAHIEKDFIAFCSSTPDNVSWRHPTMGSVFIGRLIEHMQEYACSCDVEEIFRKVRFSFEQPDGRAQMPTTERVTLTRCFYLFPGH

[3] = target: T3, 5-hydroxytryptamine receptor 1A (Rattus norvegicus, UniProt P19327); format: cell membranes, CHO-K1, Membrane; conditions: cho-k1; note: in other assays of this panel Not Active means under 50% inhibition at 10 µM
T3 sequence (P19327 whole entry): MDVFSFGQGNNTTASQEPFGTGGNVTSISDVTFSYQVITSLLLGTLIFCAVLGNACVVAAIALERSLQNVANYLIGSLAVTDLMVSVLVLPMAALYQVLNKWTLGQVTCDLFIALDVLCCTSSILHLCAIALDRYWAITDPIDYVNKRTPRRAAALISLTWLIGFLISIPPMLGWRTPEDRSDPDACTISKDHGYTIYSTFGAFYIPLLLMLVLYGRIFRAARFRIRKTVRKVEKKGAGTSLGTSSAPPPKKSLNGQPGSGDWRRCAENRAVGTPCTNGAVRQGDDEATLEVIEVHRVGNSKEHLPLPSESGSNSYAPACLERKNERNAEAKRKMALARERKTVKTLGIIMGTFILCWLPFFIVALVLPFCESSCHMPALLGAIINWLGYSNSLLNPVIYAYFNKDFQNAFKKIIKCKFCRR

Sequence of D(3) dopamine receptor (P35462 whole entry): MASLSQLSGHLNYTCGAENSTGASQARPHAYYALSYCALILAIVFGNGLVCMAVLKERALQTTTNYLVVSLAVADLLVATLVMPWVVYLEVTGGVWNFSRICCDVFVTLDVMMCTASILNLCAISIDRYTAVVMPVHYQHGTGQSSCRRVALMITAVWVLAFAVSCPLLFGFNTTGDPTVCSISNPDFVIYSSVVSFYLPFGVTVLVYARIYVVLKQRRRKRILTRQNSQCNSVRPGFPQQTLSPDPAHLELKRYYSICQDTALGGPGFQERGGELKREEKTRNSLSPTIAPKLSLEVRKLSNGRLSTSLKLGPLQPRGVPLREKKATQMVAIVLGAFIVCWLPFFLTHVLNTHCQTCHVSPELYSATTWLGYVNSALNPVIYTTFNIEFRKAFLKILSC

CC(C)(CO)C(O)C(=O)NCCCO (configuration not stated) [PANTHENOL]
Not Active: IC50 [1] | Ki [1] | IC50 (D(3) dopamine receptor) | IC50 [2] | IC50 (Caspase-1) | IC50 [3]

COc1ccc(Cc2nccc3cc(OC)c(OC)cc23)cc1OC [PAPAVERINE]
Not Active: IC50 [1] | Ki [1] | IC50 (D(3) dopamine receptor) | IC50 [2] | IC50 (Caspase-1) | IC50 [3]

OCCN1CCN(CCCN2c3ccccc3Sc3ccc(Cl)cc32)CC1 [PERPHENAZINE]
Not Active: IC50 [1] | Ki [1] | IC50 (D(3) dopamine receptor) | IC50 [2] | IC50 (Caspase-1) | IC50 [3]

CCCCC1C(=O)N(c2ccccc2)N(c2ccccc2)C1=O [PHENYLBUTAZONE]
Not Active: IC50 [1] | Ki [1] | IC50 (D(3) dopamine receptor) | IC50 [2] | IC50 (Caspase-1) | IC50 [3]

Cc1cccc(Nc2cc(Cl)nc(SCC(=O)O)n2)c1C [PIRINIXIC ACID]
Not Active: IC50 [1] | Ki [1] | IC50 (D(3) dopamine receptor) | IC50 [2] | IC50 (Caspase-1) | IC50 [3]

CC[C@H](C)C(=O)O[C@H]1C[C@H](O)C=C2C=C[C@H](C)[C@H](CC[C@@H](O)C[C@@H](O)CC(=O)O)[C@H]21 [PRAVASTATIN]
Not Active: IC50 [1] | Ki [1] | IC50 (D(3) dopamine receptor) | IC50 [2] | IC50 (Caspase-1) | IC50 [3]

CC(C)(Sc1cc(C(C)(C)C)c(O)c(C(C)(C)C)c1)Sc1cc(C(C)(C)C)c(O)c(C(C)(C)C)c1 [PROBUCOL]
Not Active: IC50 [1] | Ki [1] | IC50 (D(3) dopamine receptor) | IC50 [2] | IC50 (Caspase-1) | IC50 [3]

COBALT(II) ACETYLACETONATE
Not Active: IC50 [1] | Ki [1] | IC50 (D(3) dopamine receptor) | Ki (D(3) dopamine receptor) | IC50 [2] | Ki [2] | IC50 (Caspase-1) | Ki (Caspase-1) | IC50 [3] | Ki [3]

INSULIN HUMAN
Not Active: IC50 [1] | Ki [1] | IC50 (D(3) dopamine receptor) | Ki (D(3) dopamine receptor) | IC50 [2] | Ki [2] | IC50 (Caspase-1) | Ki (Caspase-1) | IC50 [3] | Ki [3]

POLYVINYL ALCOHOL
Not Active: IC50 [1] | Ki [1] | IC50 (D(3) dopamine receptor) | Ki (D(3) dopamine receptor) | IC50 [2] | Ki [2] | IC50 (Caspase-1) | Ki (Caspase-1) | IC50 [3] | Ki [3]
